Data reported in paper PMC11241262, “Unravelling the Antifibrinolytic Mechanism of Action of the 1,2,3-Triazole Derivatives” (International Journal of Molecular Sciences, 2024).
In brackets after ≈: the same amount, converted by molar mass.

How the values were obtained:
whole blood clots = assay: Whole blood dosage (effective antifibrinolytic dosage, tPA-triggered clot lysis); set-up: species or system human; conditions: 10 µg/mL tPA, 37 °C
Procedure: (§1) Blood was obtained by venipuncture from healthy donors after they signed an informed consent form. Blood was transferred into vacuum non-anticoagulant Vacutainer® tubes (BD, Franklin Lakes, NJ, USA). Blood samples were immediately used for the assay after extraction.
Glass tubes were prepared with 20 µL of a mixture of tPA, in a final concentration of 10 µg/mL, and the evaluated compounds, in a final concentration of 10, 20, 40, or 60 µM in Tris HCl buffer. A control clot was obtained with 20 µL of tPA with no compound. Then, 800 µL of blood was transferred to each tube and tubes were monitored for clot formation and lysis. The assay was performed with casual shaking. […] The ex vivo effective dosage for each compound was determined by their ability to inhibit complete clot degradation. Photographs were taken after 24 h of incubation.

plasminogen = target: T1, plasminogen (Homo sapiens, UniProt P00747); assay: Plasminogen activation assay (conversion of plasminogen into plasmin by tPA in the absence of fibrin); type: biochemical
T1 construct: purchased abcam
Procedure: The conversion rate of plasminogen to plasmin was assessed using the Tissue-Type Plasminogen Activator Activity Assay Kit (abcam), following the manufacturer’s instructions. The assay measures the ability of tPA to activate plasminogen to plasmin in the presence of the tested compounds using a chromogenic substrate.
A solution of plasminogen and plasmin substrate was mixed with a previously prepared solution of the studied compound and tPA in Tris HCl buffer in a 96-well plate. The final concentration of tPA in each well was 6.8 µg/mL, in a final volume of 100 µL. Absorbance was measured on a microplate reader at a wavelength of 405 nm every minute at 37 °C for 2 h or until the system reached saturation. The absorbance slope of each sample was determined using Equation (3). The Relative Plasminogen Activation (%) for each condition was calculated with Equation (4), using a control without a compound (enzyme control). (4) Relative Plasminogen Activation (%)=SlopeCompound−SlopeControl/SlopeControl×100
Values were fitted to a linear model using MATLAB R2023a (The Math Works Inc., Natick, MA, USA). Concentrations at which each compound was able to increase plasminogen’s conversion by 50% in comparison to the enzyme control were extracted and compared for the three molecules.

[1] = target: T2, tissue-type plasminogen activator (tPA) (Homo sapiens, UniProt P00750); assay: tPA activity assay (chromogenic substrate); type: biochemical
T2 construct: purchased abcam
Procedure: Tris hydrochloride, 1M, pH = 7.5 solution (Thermo Fisher Scientific, Waltham, MA, USA) was used as buffer. […] Recombinant human Tissue Plasminogen Activator (abcam, Cambridge, UK) served as the source of tPA, and was stored at −20 °C until used.
The assay measures the inhibition of tPA’s catalytic domain by the tested compounds employing a chromogenic substrate. Different concentrations of the studied molecules were incubated with tPA in a 96-well plate at 37 °C for 10 min. […] After, 20 μL of tPA’s substrate was added to each well. […] The slope for each assay was obtained from the initial and final absorbance values and their respective time points, or until complete substrate cleavage was achieved. (3) Absorbance slope=Abs2−Abs1/t2−t1
The Relative tPA Inhibition for each condition was calculated using Equation (2). Then, the Relative tPA Activity (%) was calculated by subtracting the relative tPA inhibition of each concentration from the total activity of the enzyme, obtained from a control without a compound.

in vivo = conditions: both sexes, Wistar, rat, iv
Procedure: A MTD study was performed for compound 5 in Wistar rats and Beagle dogs. A total of 25 male and 25 female Wistar rats were received in the experimental room and acclimatized for a period of 5 days prior to randomization. The environmental and housing conditions maintained during the experiment were identical to those described in the pharmacokinetic study. At the start of dosing, rats were between 6 and 7 w.o., and their body weight varied no more than ±20% from the mean body weight for each sex. During randomization, 20 male and 20 female rats were selected for the study, which were randomly allocated to four different dose level groups: D1, D2, D3, and D4. Each group consisted of 5 male and 5 female rats. The remaining 5 male and 5 female rats were returned to the animal facility.
Dose formulations of compound 5 were administered by an intravenous bolus injection through the tail vein, using a sterile needle attached to a graduated syringe. Sterile water also served as a vehicle in the MTD assay. A fixed dose volume of 5 mL/kg b. wt. was used, and individual doses were adjusted according to the most recent recorded body weight of each rat. […]
Rats were subjected to twice-daily monitoring for clinical, mortality, and morbidity signs throughout the study. […] Body weight was recorded on days 1 (before treatment), 4, 8, 11, and 14 of the study. […]

[2] = Maximum solubility in plasmin assay; type: physicochemical; conditions: Tris HCl buffer (plasmin activity assay solution), pH 7.5
[3] = test system: whole blood clot formation; assay: Whole blood coagulation assay (clot formation, no exogenous tPA); set-up: species or system human; conditions: 40 µM, 37 °C, fibrinolysis not triggered
Procedure: as §1
Prior to blood addition, 20 µL of the evaluated compounds was added to glass tubes, in a final concentration of 40 µM. As a control clot, 20 µL of Tris HCl buffer with no compound was used. Next, 800 µL of blood was transferred to each tube followed by casual shaking to ensure proper mixing. Tubes were incubated at 37 °C for 30 min to allow clot formation and posterior lysis. Blood clotting and lysis were visually monitored and photographs were taken after 30 min.

T2 sequence (P00750 36-562): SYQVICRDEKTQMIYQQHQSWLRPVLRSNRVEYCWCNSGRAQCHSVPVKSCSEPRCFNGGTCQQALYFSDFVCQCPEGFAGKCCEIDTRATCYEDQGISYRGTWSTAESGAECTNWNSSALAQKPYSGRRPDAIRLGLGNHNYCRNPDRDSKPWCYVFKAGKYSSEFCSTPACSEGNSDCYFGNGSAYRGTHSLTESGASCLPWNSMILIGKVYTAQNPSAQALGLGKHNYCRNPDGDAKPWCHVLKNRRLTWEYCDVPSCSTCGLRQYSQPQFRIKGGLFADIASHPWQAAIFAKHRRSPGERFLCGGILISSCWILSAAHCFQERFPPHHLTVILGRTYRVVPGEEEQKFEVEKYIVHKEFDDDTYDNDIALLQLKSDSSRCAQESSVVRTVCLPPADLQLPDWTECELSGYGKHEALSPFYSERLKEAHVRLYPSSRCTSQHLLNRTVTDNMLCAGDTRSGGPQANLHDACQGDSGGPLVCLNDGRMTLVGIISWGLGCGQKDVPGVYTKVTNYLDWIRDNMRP
T1 sequence (P00747 20-810 limits assumed): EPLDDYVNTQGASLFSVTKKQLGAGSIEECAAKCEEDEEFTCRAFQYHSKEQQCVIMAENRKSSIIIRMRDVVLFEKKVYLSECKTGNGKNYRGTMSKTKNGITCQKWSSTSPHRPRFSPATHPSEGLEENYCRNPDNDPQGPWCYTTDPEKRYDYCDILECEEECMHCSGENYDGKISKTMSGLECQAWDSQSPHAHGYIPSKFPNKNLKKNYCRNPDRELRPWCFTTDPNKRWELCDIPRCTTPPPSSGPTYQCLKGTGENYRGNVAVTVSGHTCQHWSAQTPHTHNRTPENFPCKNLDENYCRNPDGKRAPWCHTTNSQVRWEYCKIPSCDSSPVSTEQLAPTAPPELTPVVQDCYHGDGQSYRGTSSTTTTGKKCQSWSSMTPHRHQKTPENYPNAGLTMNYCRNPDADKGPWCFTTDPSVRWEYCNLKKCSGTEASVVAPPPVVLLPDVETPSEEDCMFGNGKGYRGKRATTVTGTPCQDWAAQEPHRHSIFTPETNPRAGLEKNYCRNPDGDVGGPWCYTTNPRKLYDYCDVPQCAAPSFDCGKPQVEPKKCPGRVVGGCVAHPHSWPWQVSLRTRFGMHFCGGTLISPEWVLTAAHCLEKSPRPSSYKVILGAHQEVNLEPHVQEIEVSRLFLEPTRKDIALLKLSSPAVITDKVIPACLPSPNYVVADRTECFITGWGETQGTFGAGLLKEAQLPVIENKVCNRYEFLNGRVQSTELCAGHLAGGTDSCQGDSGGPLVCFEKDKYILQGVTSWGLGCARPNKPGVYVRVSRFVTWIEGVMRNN

## O=c1[nH]nc(-c2cn(C3CCNCC3)nn2)o1 [compound 5]
Whole blood clots
  effective dosage (concentration preventing complete clot degradation after 24 h): 10 µM
plasminogen; from concentration enhancing tPA's activity by 50%
  potency relative to TXA in catalyzing plasminogen's activation by tPA: more than 50 times
plasminogen; plasminogen-tPA isolated system, absence of fibrin
  concentration at which compound increased tPA's activity by 50%: 4.03 µM
[1]; 0.5 mM
  percentage of tPA's activity: 93.70%
[1]; 1 mM
  percentage of tPA's activity: 91.18%
[1]; 5 mM
  percentage of tPA's activity: 88.78%
[1]; 10 mM
  percentage of tPA's activity: 89.39%
[1]; 15 mM
  percentage of tPA's activity: 103.70%
[1]; at the tested concentrations
  activity on tPA's active site: no activity
In vivo
  MTD at 14 days: 300 mg/kg
[2]
  solubility: 20 mM (≈ 4720 µg/mL)
[3]
  effect on clot formation: do not have any effect
